Target: T1, GABA A receptor α5β3γ2 (hα5) (Homo sapiens, UniProt P18507+P31644)
T1 construct: expressed in transfected cells; host or cells: HEK293 (transiently transfected; membranes prepared from cell pellets)
Assay: [3H]flumazenil competition binding assay, human GABA A α5β3γ2 receptors
Settings: displacement of [3H]flumazenil (0.5 nM) from membranes of HEK293 cells expressing human α5β3γ2; 1 hour at 4° C.; means of two determinations
Experimental: The affinity of compounds at GABA A receptor subtypes was measured by competition for [3H]flumazenil (85 Ci/mmol; Roche) binding to HEK293 cells expressing rat (stably transfected) or human (transiently transfected) receptors of composition α1β3γ2, α2⊖3γ2, α3β3γ2 and α5β3γ2.
Cell pellets were suspended in Krebs-tris buffer (4.8 mM KCl, 1.2 mM CaCl2, 1.2 mM MgCl2, 120 mM NaCl, 15 mM Tris; pH 7.5; binding assay buffer), homogenized by polytron for ca. 20 sec on ice and centrifuged for 60 min at 4° C. (50000 g; Sorvall, rotor: SM24=20000 rpm). The cell pellets were resuspended in Krebs-tris buffer and homogenized by polytron for ca. 15 sec on ice. Protein was measured (Bradford method, Bio-Rad) and aliquots of 1 mL were prepared and stored at −80° C.
Assays were incubated to equilibrium for 1 hour at 4° C. and harvested onto GF/C uni-filters (Packard) by filtration using a Packard harvester and washing with ice-cold wash buffer (50 mM Tris; pH 7.5). After drying, filter-retained radioactivity was detected by liquid scintillation counting. Ki values were calculated using Excel-Fit (Microsoft) and are the means of two determinations.

With `Cc1onc(-c2ccccc2)c1C(=O)c1c[nH]c(C(=O)NC2CCC2)c1` [Example 15, 4-(5-Methyl-3-phenyl-isoxazole-4-carbonyl)-1H-pyrrole-2-carboxylic acid cyclobutylamide] the Ki was 0.00795 µM.

`CCc1onc(-c2ccccc2)c1C(=O)c1c[nH]c(C(=O)NC2CCCC2)c1` [Example 215, 4-(5-Ethyl-3-phenyl-isoxazole-4-carbonyl)-1H-pyrrole-2-carboxylic acid cyclopentylamide] showed a Ki of 0.0021 µM.

In the case of `Cc1onc(-c2ccc(Br)cc2)c1C(=O)c1c[nH]c(C(=O)N[C@H]2CC[C@H](O)CC2)c1` [Example 123, 4-[3-(4-Bromo-phenyl)-5-methyl-isoxazole-4-carbonyl]-1H-pyrrole-2-carboxylic acid (4-hydroxy-cyclohexyl)-amide], the Ki is reported as 0.0045 µM.

In the case of `Cc1onc(-c2ccc(Br)cc2)c1C(=O)c1cc(C(=O)NC2CCOCC2)n(C)c1` [Example 231, 4-[3-(4-Bromo-phenyl)-5-methyl-isoxazole-4-carbonyl]-1-methyl-1H-pyrrole-2-carboxylic acid (tetrahydro-pyran-4-yl)-amide], the Ki is reported as 0.008 µM.

With `Cc1onc(-c2ccc(Cl)cc2)c1C(=O)c1c[nH]c(C(=O)NC2CC2)c1` [Example 154, 4-[3-(4-Chloro-phenyl)-5-methyl-isoxazole-4-carbonyl]-1H-pyrrole-2-carboxylic acid cyclopropylamide] the Ki was 0.0061 µM.

For `Cc1onc(-c2ccc(Cl)cc2)c1C(=O)c1c[nH]c(C(=O)NCCO)c1` [Example 153, 4-[3-(4-Chloro-phenyl)-5-methyl-isoxazole-4-carbonyl]-1H-pyrrole-2-carboxylic acid (2-hydroxy-ethyl)-amide], the Ki was 0.00755 µM.

For `Cc1onc(-c2ccc(Cl)cc2)c1C(=O)c1c[nH]c(C(=O)NC2CCCC2)c1` [Example 152, 4-[3-(4-Chloro-phenyl)-5-methyl-isoxazole-4-carbonyl]-1H-pyrrole-2-carboxylic acid cyclopentylamide], the Ki was 0.0052 µM.

Compound `C#CCNC(=O)c1cc(C(=O)c2c(-c3ccc(Cl)cc3)noc2C)c[nH]1` [Example 157, 4-[3-(4-Chloro-phenyl)-5-methyl-isoxazole-4-carbonyl]-1H-pyrrole-2-carboxylic acid prop-2-ynylamide] has a Ki of 0.00745 µM.

Compound `Cc1onc(-c2ccc(Cl)cc2)c1C(=O)c1c[nH]c(C(=O)NCc2ccco2)c1` [Example 160, 4-[3-(4-Chloro-phenyl)-5-methyl-isoxazole-4-carbonyl]-1H-pyrrole-2-carboxylic acid (furan-2-ylmethyl)-amide] has a Ki of 0.0069 µM.

`Cc1onc(-c2ccc(F)cc2)c1C(=O)c1c[nH]c(C(=O)NC2CCOCC2)c1` [Example 146, 4-[3-(4-Fluoro-phenyl)-5-methyl-isoxazole-4-carbonyl]-1H-pyrrole-2-carboxylic acid (tetrahydro-pyran-4-yl)-amide] showed a Ki of 0.00155 µM.

`Cc1onc(-c2ccccc2)c1C(=O)c1c[nH]c(C(=O)NC2CCOCC2)c1` [Example 26, 4-(5-Methyl-3-phenyl-isoxazole-4-carbonyl)-1H-pyrrole-2-carboxylic acid (tetrahydro-pyran-4-yl)-amide] gave a Ki of 0.00285 µM.

With `Cc1onc(-c2ccc(F)cc2)c1C(=O)c1c[nH]c(C(=O)NC2CCCC2)c1` [Example 136, 4-[3-(4-Fluoro-phenyl)-5-methyl-isoxazole-4-carbonyl]-1H-pyrrole-2-carboxylic acid cyclopentylamide] the Ki was 0.00165 µM.

Compound `Cc1onc(-c2ccc(Cl)cc2)c1C(=O)c1c[nH]c(C(=O)NC2CCOCC2)c1` [Example 162, 4-[3-(4-Chloro-phenyl)-5-methyl-isoxazole-4-carbonyl]-1H-pyrrole-2-carboxylic acid (tetrahydro-pyran-4-yl)-amide] has a Ki of 0.0014 µM.

In the case of `Cc1onc(-c2ccc(F)c(F)c2)c1C(=O)c1c[nH]c(C(=O)NC2CCCC2)c1` [Example 255, 4-[3-(3,4-Difluoro-phenyl)-5-methyl-isoxazole-4-carbonyl]-1H-pyrrole-2-carboxylic acid cyclopentylamide], the Ki is reported as 0.0064 µM.

Work on `Cc1onc(-c2ccc(Br)cc2)c1C(=O)c1cc(C(=O)NCCCN2CCOCC2)n(C)c1` [Example 232, 4-[3-(4-Bromo-phenyl)-5-methyl-isoxazole-4-carbonyl]-1-methyl-1H-pyrrole-2-carboxylic acid (3-morpholin-4-yl-propyl)-amide] yielded a Ki of 0.0087 µM.

`C#CCNC(=O)c1cc(C(=O)c2c(-c3ccc(F)cc3)noc2C)c[nH]1` [Example 145, 4-[3-(4-Fluoro-phenyl)-5-methyl-isoxazole-4-carbonyl]-1H-pyrrole-2-carboxylic acid prop-2-ynylamide] showed a Ki of 0.00775 µM.

`Cc1onc(-c2ccc(Cl)cc2)c1C(=O)c1c[nH]c(C(=O)NCC2CC2)c1` [Example 156, 4-[3-(4-Chloro-phenyl)-5-methyl-isoxazole-4-carbonyl]-1H-pyrrole-2-carboxylic acid cyclopropylmethyl-amide] gave a Ki of 0.00385 µM.

For `Cc1onc(-c2ccccc2)c1C(=O)c1c[nH]c(C(=O)NCC2CC2)c1` [Example 12, 4-(5-Methyl-3-phenyl-isoxazole-4-carbonyl)-1H-pyrrole-2-carboxylic acid cyclopropylmethyl-amide], the Ki was 0.0066 µM.

With `CCc1onc(-c2ccccc2)c1C(=O)c1c[nH]c(C(=O)NCC2CC2)c1` [Example 216, 4-(5-Ethyl-3-phenyl-isoxazole-4-carbonyl)-1H-pyrrole-2-carboxylic acid cyclopropylmethyl-amide] the Ki was 0.0023 µM.

`Cc1onc(-c2ccc(F)cc2)c1C(=O)c1c[nH]c(C(=O)NC2CC2)c1` [Example 137, 4-[3-(4-Fluoro-phenyl)-5-methyl-isoxazole-4-carbonyl]-1H-pyrrole-2-carboxylic acid cyclopropylamide] showed a Ki of 0.0041 µM.

`CCc1onc(-c2ccccc2)c1C(=O)c1c[nH]c(C(=O)NC2CC2)c1` [Example 217, 4-(5-Ethyl-3-phenyl-isoxazole-4-carbonyl)-1H-pyrrole-2-carboxylic acid cyclopropylamide] showed a Ki of 0.00485 µM.

`Cc1onc(-c2ccc(F)cc2)c1C(=O)c1c[nH]c(C(=O)NCCO)c1` [Example 140, 4-[3-(4-Fluoro-phenyl)-5-methyl-isoxazole-4-carbonyl]-1H-pyrrole-2-carboxylic acid (2-hydroxy-ethyl)-amide] showed a Ki of 0.0099 µM.

`Cc1onc(-c2cccc(F)c2)c1C(=O)c1c[nH]c(C(=O)NC2CCCC2)c1` [Example 178, 4-[3-(3-Fluoro-phenyl)-5-methyl-isoxazole-4-carbonyl]-1H-pyrrole-2-carboxylic acid cyclopentylamide] showed a Ki of 0.0061 µM.

In the case of `Cc1onc(-c2ccc(Br)cc2)c1C(=O)c1c[nH]c(C(=O)NC2CCOC(C)(C)C2)c1` (centres unmarked) [Example 135, 4-[3-(4-Bromo-phenyl)-5-methyl-isoxazole-4-carbonyl]-1H-pyrrole-2-carboxylic acid (2,2-dimethyl-tetrahydro-pyran-4-yl)-amide], the Ki is reported as 0.0045 µM.

`Cc1onc(-c2ccc(F)c(F)c2)c1C(=O)c1c[nH]c(C(=O)NC2CCOCC2)c1` [Example 254, 4-[3-(3,4-Difluoro-phenyl)-5-methyl-isoxazole-4-carbonyl]-1H-pyrrole-2-carboxylic acid (tetrahydro-pyran-4-yl)-amide] gave a Ki of 0.0042 µM.

Work on `Cc1onc(-c2ccccc2F)c1C(=O)c1c[nH]c(C(=O)NC2CCCC2)c1` [Example 173, 4-[3-(2-Fluoro-phenyl)-5-methyl-isoxazole-4-carbonyl]-1H-pyrrole-2-carboxylic acid cyclopentylamide] yielded a Ki of 0.0063 µM.

For `Cc1onc(-c2ccc(F)cc2)c1C(=O)c1c[nH]c(C(=O)NCCc2cnc[nH]2)c1` [Example 141, 4-[3-(4-Fluoro-phenyl)-5-methyl-isoxazole-4-carbonyl]-1H-pyrrole-2-carboxylic acid [2-(1H-imidazol-4-yl)-ethyl]-amide], the Ki was 0.00605 µM.

Work on `CCc1onc(-c2ccccc2)c1C(=O)c1c[nH]c(C(=O)NC2CCOCC2)c1` [Example 210, 4-(5-Ethyl-3-phenyl-isoxazole-4-carbonyl)-1H-pyrrole-2-carboxylic acid (tetrahydro-pyran-4-yl)-amide] yielded a Ki of 0.00245 µM.

`COCc1onc(-c2ccc(F)cc2)c1C(=O)c1c[nH]c(C(=O)NC2CCOCC2)c1` [Example 221, 4-[3-(4-Fluoro-phenyl)-5-methoxymethyl-isoxazole-4-carbonyl]-1H-pyrrole-2-carboxylic acid (tetrahydro-pyran-4-yl)-amide] showed a Ki of 0.0043 µM.

`Cc1onc(-c2ccc(Br)cc2)c1C(=O)c1c[nH]c(C(=O)NC(C)C)c1` [Example 84, 4-[3-(4-Bromo-phenyl)-5-methyl-isoxazole-4-carbonyl]-1H-pyrrole-2-carboxylic acid isopropylamide] showed a Ki of 0.00685 µM.

Compound `Cc1onc(-c2ccc(Br)cc2)c1C(=O)c1c[nH]c(C(=O)NC2CCOCC2)c1` [Example 61, 4-[3-(4-Bromo-phenyl)-5-methyl-isoxazole-4-carbonyl]-1H-pyrrole-2-carboxylic acid (tetrahydro-pyran-4-yl)-amide] has a Ki of 0.00365 µM.

Compound `Cc1onc(-c2ccc(F)cc2)c1C(=O)c1c[nH]c(C(=O)NC2CCC2)c1` [Example 138, 4-[3-(4-Fluoro-phenyl)-5-methyl-isoxazole-4-carbonyl]-1H-pyrrole-2-carboxylic acid cyclobutylamide] has a Ki of 0.0036 µM.
